# Measurements from patent publication US9440941B2, “Substituted chroman-6-yloxy-cycloalkanes and their use as pharmaceuticals” (SANOFI, priority 2013, dated 2016).
# Counter-ions that a name gives are not always drawn.
# Target: T1, human NCX1 (Homo sapiens, UniProt P32418)
# T1 construct: expressed in transfected cells
# Test: Inhibition of Ca2+ influx into cells (NCX1 reverse mode), FLIPR Fluo-4 assay
# Type: cell-based
# Settings: at 10 μM; NCX1 reverse mode; IC50 value not determined; read-out: Inhibition in % at 10 μM (NCX1rv)
# Source text: The sodium/calcium exchanger NCX1 can transport calcium ions and sodium ions through the cell membrane. The transport is an exchange of Ca^2+ and Na^+ in two directions depending on membrane potential and ion gradients. At the first direction, named “forward mode” or “calcium export mode”, Ca^2+ is transported out of the cell and Na^+ is transported into the cell. At the other direction, named “reverse mode” or “calcium import mode”, the transport directions are vice versa. The effect of the compounds of the invention on NCX1 was determined in CHO cells stably expressing human NCX1 (gene symbol SLC8A1; cf. WO 2009/115238). The assay is based on the monitoring of intracellular Ca^2+ concentrations using a calcium-sensitive fluorescence dye which is detected by means of a FLIPR device (Fluorimetric Imaging Plate Reader, Molecular Devices).
# Assay Technology—Reverse Mode
# The assay is based on the monitoring of intracellular Ca^2+ concentrations using the calcium-sensitive dye Fluo-4. CHO cells expressing NCX1 were loaded with the dye by means of the acetoxymethyl ester Fluo-4 AM (Invitrogen, F14202), which is cleaved intracellularly by esterase activity to yield the charged species of free Fluo-4. After an preincubation period with the test compound, Gramicidine (Sigma, G5002) was added. Gramicidine is an ionophor for Na^+ ions mediating an increase of intracellular Na^+ ions. Consequently, intracellular Na^+ ions are exchanged against extracellular Ca^2+ ions (Ca^2+ influx, reverse mode). The intracellular elevation of Ca^2+ ions was detected by measuring the fluorescence of Fluo-4 at a wavelength of 520 nm by a FLIPR device.
# Briefly, for the reverse mode transport assay 18000 cells per well were seeded into a 96 well microplate (Corning COSTAR 3904) and incubated overnight in culture medium (1× Nut Mix F12 (Ham) (Gibco, 21765-029); 10% (v/v) fetal calf serum (PAA Gold, A15-649); 450 μg/ml Geneticin (Gibco, 10131-027)). A total volume of 100 μl medium per well was used. For the preparation of the FLIPR assay, the culture medium was removed from the plates and 100 μl of dye solution (2 μM Fluo-4 AM; 0.02% (v/v) Pluronic F-127 (20%, Invitrogen, P3000MP); 0.1% (v/v) bovine albumin solution (30% (v/v), Sigma, A9205) in assay buffer (133.8 mM NaCl (Sigma, S5886); 4.7 mM KCl (Sigma, P3911); 1.25 mM MgCl2 (Merck, 1.05833.0250); 3.5 mM CaCl2 (Merck, 1.02083.0250); 5 mM glucose (Sigma, G7021); 10 mM Hepes (Sigma, H4034); 0.01% (v/v) Pluronic F-127 (5%, Sigma, P2443); 2.5 mM Probenecid (Maybridge, SB00915EB); pH 7.4)) were added into each well. The plates were incubated in the dark at room temperature for 80 min. After the incubation period, the dye solution was removed and the wells were washed with 100 μl of assay buffer. Then 80 μl of a solution of the test compound in assay buffer in different concentrations were added into the wells. The plates were incubated at 16° C. for 45 min. Meanwhile a 60 μM solution of Gramicidine in assay buffer (4° C.) was prepared and stored in the wells of a 96 well microplate (96 well microplate, polypropylene, U-shape (Greiner Bio-One, 650201)) at 4° C. until measurement was started. The fluorescence monitoring was performed at 240 measuring points with measurement intervals of 2 sec. After the fifth measuring point, 40 μl of the Gramicidine solution were added to each well of the assay plates to give a final Gramicidine concentration of 20 μM. For the determination of the IC50 values the minimal fluorescence value was subtracted from the maximal fluorescence value for all measuring points. The calculation of the IC50 values via the percentage inhibitions of Ca^2+ influx into cells (reverse mode) effected by the test compound was performed in Biost@t Speed 2.0.
row,inhibition at 10 µM [%],Molecule
1,85,Cc1ccccc1C1CCc2cc(OC3CCC(NCCSC(C)C)CC3)ccc2O1 (stereo not shown) [compound 194]
2,98,CCOCCCNC1CCC(Oc2ccc3c(c2)CCC(c2ccccc2C)O3)CC1 (stereo not shown) [compound 201]

# Same assay, conditions: at 10 μM; NCX1 reverse mode; IC50 value not determined; read-out: NCX1rv inhibition in % at 10 μM
row,inhibition at 10 µM [%],Molecule
1,99,Cc1ccccc1C1CCc2cc(OC3CCC(NCC4CCCO4)CC3)ccc2O1 (stereo not shown) [compound 187]

# Same assay, conditions: inhibition of NCX1 in reverse mode (Ca2+ influx into cells); read-out: NCX1rv IC50
row,Molecule,IC50 [nM]
1,"Cc1cccc(C)c1C1CCc2cc(O[C@H]3CC[C@H](N)CC3)ccc2O1 (relative stereo) [compound 168, hydrochloride]",4000
2,"N-[2-(1,1-Dioxo-thiomorpholin-4-yl)ethyl]-4-(2-phenylchroman-6-yloxy)-cyclohexylamine [compound 138]",600
3,"1,1-Dioxo-N-[4-(2-phenylchroman-6-yloxy)cyclohexyl]-tetrahydrothiophen-3-ylamine [compound 147]",700
4,Cc1cccc(C)c1C1CCc2cc(O[C@H]3CC[C@H](NC(=O)CCn4cccn4)CC3)ccc2O1 (relative stereo) [compound 172],7100
5,N-Cyclopentyl-4-(2-phenylchroman-6-yloxy)-cyclohexylamine [compound 143],800
6,N-(3-Hydroxypropyl)-4-(2-phenylchroman-6-yloxy)-cyclohexanecarboxamide [compound 150],900
7,COCC(C)(C)CNC1CCC(Oc2ccc3c(c2)CCC(c2ccccc2F)O3)CC1 (stereo not shown) [compound 211],2200
8,COCCCNC1CCC(Oc2ccc3c(c2)CCC(c2ccccc2F)O3)CC1 (stereo not shown) [compound 215],2800
9,Cc1nn(C)c(C)c1CNC1CCC(Oc2ccc3c(c2)CCC(c2ccccc2F)O3)CC1 (stereo not shown) [compound 169],2500
10,CC(C)C(C)NC1CCC(Oc2ccc3c(c2)CCC(c2ccccc2)O3)CC1 (stereo not shown) [compound 109],1000
11,O=C(NCc1ccnc(Cl)c1)C1CCC(Oc2ccc3c(c2)CCC(c2ccccc2F)O3)CC1 (stereo not shown) [compound 184],1300
12,c1ccc(C2CCc3cc(OC4CCC(NCCSC5CCCCC5)CC4)ccc3O2)cc1 (stereo not shown) [compound 117],3700
13,Cc1cc2c(cc1OC1CCC(C(=O)NCc3ccno3)CC1)CCC(c1ccccc1C)O2 (stereo not shown) [compound 289],1300
14,CSC(C)CCNC1CCC(Oc2ccc3c(c2)CCC(c2c(C)cccc2C)O3)CC1 (stereo not shown) [compound 165],10000
15,"CCCC1(N)CCC(Oc2ccc3c(c2)CCC(c2ccccc2)O3)CC1 (stereo not shown) [compound 17, hydrochloride]",1000
16,COCCC(=O)N[C@H]1CC[C@H](Oc2ccc3c(c2)CCC(c2ccccc2F)O3)CC1 (relative stereo) [compound 243],700
17,"CCC(N)C1(CC)CCC(Oc2ccc3c(c2)CCC(c2ccccc2)O3)CC1 (stereo not shown) [compound 11, hydrochloride]",2800
18,Fc1ccccc1C1CCc2cc(OC3CCC(NC4CCCC4)CC3)ccc2O1 (stereo not shown) [compound 218],2800
19,COc1cccc(C2CCc3cc(OC4CCC(C(=O)NCc5ccno5)CC4)ccc3O2)c1F (stereo not shown) [compound 295],1100
20,CCn1nccc1CNC(=O)C1CCC(Oc2cc3c(cc2C)OC(c2ccccc2C)CC3)CC1 (stereo not shown) [compound 290],1500
21,"Clc1ccc(CN[C@H]2CC[C@H](Oc3ccc4c(c3)CCC(c3ccccc3)O4)CC2)s1 (stereo partly drawn) [compound 69, N-(5-Chloro-thiophen-2-ylmethyl)-[trans-4-(2-phenylchroman-6-yloxy)]-cyclohexylamine]",1300
22,CC(C)CCNC1CCC(Oc2ccc3c(c2)CCC(c2ccccc2)O3)CC1 (stereo not shown) [compound 98],600
23,N-Pentyl-4-(2-phenylchroman-6-yloxy)-cyclohexylamine [compound 144],600
24,O=C(NCCO)C1CCC(Oc2ccc3c(c2)CCC(c2ccccc2F)O3)CC1 (stereo not shown) [compound 173],700
25,COCC(C)NC1CCC(Oc2ccc3c(c2)CCC(c2ccccc2)O3)CC1 (stereo not shown) [compound 110],1300
26,CSC(C)CCNC1CCC(Oc2ccc3c(c2)CCC(c2ccccc2F)O3)CC1 (stereo not shown) [compound 170],4600
27,CCC(C)CN(CCO)C1CCC(Oc2ccc3c(c2)CCC(c2ccccc2)O3)CC1 (stereo not shown) [compound 100],1400
28,N-(2-tert-Butoxyethyl)-4-(2-phenylchroman-6-yloxy)-cyclohexylamine [compound 135],800

# Now from value to molecule:
row,IC50 [nM],Molecule
1,300,Cc1nc(CC(=O)N[C@H]2CC[C@H](Oc3ccc4c(c3)CCC(c3ccccc3F)O4)CC2)c(C)s1 (relative stereo) [compound 245]
2,200,CS(=O)(=O)CCC(=O)N[C@H]1CC[C@H](Oc2ccc3c(c2)CCC(c2ccccc2)O3)CC1 (relative stereo) [compound 21]
3,400,Cc1c(F)cccc1C1CCc2cc(OC3CCC(C(=O)NCC(N)=O)CC3)ccc2O1 (stereo not shown) [compound 272]
4,300,Cc1cc(C(=O)N[C@H]2CC[C@H](Oc3ccc4c(c3)CCC(c3ccccc3F)O4)CC2)n[nH]1 (relative stereo) [compound 261]
5,400,"Cc1nc(CNC(=O)[C@H]2CC[C@@H](Oc3ccc4c(c3)CCC(c3ccccc3)O4)CC2)no1 (single isomer, unassigned; stereoisomer 2) [compound 96, N-(5-Methyl-[1,2,4]oxadiazol-3-ylmethyl)-[4-cis-(2-phenylchroman-6-yloxy)]-cyclohexanecarboxamide, stereoisomer 2 (2)]"
6,300,"N[C@H]1CC[C@H](Oc2ccc3c(c2)CC[C@H](c2ccccc2)O3)CC1 [compound 9, hydrochloride]"
7,400,O=C(CSC(F)(F)F)N[C@H]1CC[C@H](Oc2ccc3c(c2)CCC(c2ccccc2F)O3)CC1 (relative stereo) [compound 260]
8,300,"C[C@@H](N)C(=O)N[C@H]1CC[C@H](Oc2ccc3c(c2)CCC(c2ccccc2)O3)CC1 (stereo partly shown) [compound 72, hydrochloride]"
9,100,CSCC(=O)N[C@H]1CC[C@H](Oc2ccc3c(c2)CCC(c2ccccc2)O3)CC1 (relative stereo) [compound 19]
10,300,Cc1nn(C)c(C)c1CCC(=O)N[C@H]1CC[C@H](Oc2ccc3c(c2)CCC(c2ccccc2F)O3)CC1 (relative stereo) [compound 254]
11,300,O=C(CC1CC1)N[C@H]1CC[C@H](Oc2ccc3c(c2)CCC(c2ccccc2F)O3)CC1 (relative stereo) [compound 252]
12,300,CC(=O)N[C@H]1CC[C@H](Oc2ccc3c(c2)CCC(c2ccccc2)O3)CC1 (relative stereo) [compound 7]
13,300,O=C(NCCO)C1CCC(Oc2ccc3c(c2)CC[C@H](c2ccccc2)O3)CC1 (stereo partly shown) [compound 99]
14,300,Cc1nc(C(=O)N[C@H]2CC[C@H](Oc3ccc4c(c3)CCC(c3ccccc3F)O4)CC2)cs1 (relative stereo) [compound 247]
15,400,CSC(C)CCNC(=O)C1CCC(Oc2ccc3c(c2)CCC(c2cccc(F)c2C)O3)CC1 (stereo not shown) [compound 282]
16,200,Cc1ccccc1C1CCc2cc(OC3CCC(C(=O)NC(CO)CO)CC3)ccc2O1 (stereo not shown) [compound 264]
17,300,Cc1nn(C)c(C)c1CCC(=O)N[C@H]1CC[C@H](Oc2ccc3c(c2)CCC(c2ccccc2)O3)CC1 (relative stereo) [compound 36]
18,300,"CCn1cc(CN[C@H]2CC[C@H](Oc3ccc4c(c3)CCC(c3ccccc3)O4)CC2)c(C)n1 (stereo partly drawn) [compound 68, N-(1-Ethyl-3-methyl-pyrazol-4-ylmethyl)-[trans-4-(2-phenylchroman-6-yloxy)]-cyclohexylamine]"
